From patent US9718788B2, “Heteroaryl compounds useful as inhibitors of E1 activating enzymes” (MILLENNIUM PHARMACEUTICALS, INC., priority 2006, dated 2017)

Target: T1, recombinant human NAE enzyme (Homo sapiens, UniProt Q8TBC4)
T1 construct: His (N); made in house; host or cells: Sf9 insect cells (baculovirus, Bac-to-Bac)
T1 sequence (Q8TBC4 1-463): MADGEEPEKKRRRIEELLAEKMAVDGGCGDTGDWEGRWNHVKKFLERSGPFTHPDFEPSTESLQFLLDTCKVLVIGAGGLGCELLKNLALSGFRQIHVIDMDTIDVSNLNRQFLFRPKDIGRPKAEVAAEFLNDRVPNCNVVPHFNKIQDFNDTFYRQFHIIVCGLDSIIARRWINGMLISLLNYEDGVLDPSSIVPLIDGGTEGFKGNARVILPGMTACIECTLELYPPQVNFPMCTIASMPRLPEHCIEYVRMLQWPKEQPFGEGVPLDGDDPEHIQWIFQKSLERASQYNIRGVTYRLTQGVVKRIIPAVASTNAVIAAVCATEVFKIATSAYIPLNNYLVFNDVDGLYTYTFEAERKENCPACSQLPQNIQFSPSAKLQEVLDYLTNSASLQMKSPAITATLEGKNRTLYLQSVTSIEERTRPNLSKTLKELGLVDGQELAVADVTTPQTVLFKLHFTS
T1 sequence (Q13564 1-534 partner): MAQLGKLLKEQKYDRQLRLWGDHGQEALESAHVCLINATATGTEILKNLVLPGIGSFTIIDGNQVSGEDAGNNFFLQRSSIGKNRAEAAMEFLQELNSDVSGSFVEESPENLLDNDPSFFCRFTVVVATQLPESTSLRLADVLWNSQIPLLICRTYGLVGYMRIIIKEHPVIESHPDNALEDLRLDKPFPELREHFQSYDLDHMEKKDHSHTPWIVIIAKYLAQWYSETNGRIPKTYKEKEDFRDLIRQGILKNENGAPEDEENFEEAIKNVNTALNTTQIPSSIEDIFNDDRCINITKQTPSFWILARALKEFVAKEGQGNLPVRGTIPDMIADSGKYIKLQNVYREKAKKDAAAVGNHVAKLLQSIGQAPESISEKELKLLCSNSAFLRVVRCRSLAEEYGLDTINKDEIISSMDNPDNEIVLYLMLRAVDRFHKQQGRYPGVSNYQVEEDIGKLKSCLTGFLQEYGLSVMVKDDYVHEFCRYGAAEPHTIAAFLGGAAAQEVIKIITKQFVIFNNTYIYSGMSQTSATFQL
Assay: Nedd8-Activating Enzyme (NAE) HTRF Assay
Type: biochemical
Details: 20 μM ATP
Procedure, shortened: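 Recombinant human NAE (NAEα/His-NAEβ from Sf9 cells) at 0.20 nM with 20 μM ATP, 0.01 μM Ubc12-GST and 0.075 μM Nedd8-Flag in HEPES pH 7.5, 105 min at 24° C. EDTA stop; Eu-anti-FLAG/APC-anti-GST HTRF read after 1 h.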

| Compound | IC50 (bound given in nM) [nM] | IC50 (bound given in μM) [nM] |
| --- | --- | --- |
| NS(=O)(=O)OC[C@@H]1C[C@@H](Oc2ncnc3nc(-c4c[nH]c5ccccc45)[nH]c23)C[C@@H]1O [Compound I-140, ((1S,2S,4R)-2-hydroxy-4-{[8-(1H-indol-3-yl)-7H-purin-6-yl]oxy}cyclopentyl)methyl sulfamate] | ≤ 500 |  |
| NS(=O)(=O)OC[C@@H]1C[C@@H](Oc2cc(OCc3ccc4ccccc4c3)ncn2)C[C@@H]1O [Compound I-141, ((1S,2S,4R)-2-hydroxy-4-{[6-(2-naphthylmethoxy)pyrimidin-4-yl]oxy}cyclopentyl)methyl sulfamate] | > 500 | < 10000 |
| NS(=O)(=O)OC[C@H]1C[C@@H](Nc2ccnc(C(=O)N[C@H]3CCc4ccccc43)c2)[C@H](O)[C@@H]1O [Compound I-144, {(1R,2R,3S,4R)-4-[(2-{[(1S)-2,3-dihydro-1H-inden-1-ylamino]carbonyl}pyridin-4-yl)-amino]-2,3-dihydroxycyclopentyl}methyl sulfamate] |  | > 10000 |
| NS(=O)(=O)OC[C@H]1C[C@@H](Nc2ccnc(C(=O)N3CCc4ccccc43)c2)[C@H](O)[C@@H]1O [Compound I-145, ((1R,2R,3S,4R)-4-{[2-(2,3-dihydro-1H-indol-1-ylcarbonyl)pyridin-4-yl]amino}-2,3-dihydroxycyclopentyl)methyl sulfamate] |  | > 10000 |
| COc1ccc2c(c1)[C@H](Nc1cc(O[C@@H]3C[C@@H](COS(N)(=O)=O)[C@@H](O)C3)ncn1)[C@H](OC)CC2 [Compound I-148, {(1S,2S,4R)-4-[(6-{[(1S,2R)-2,7-dimethoxy-1,2,3,4-tetrahydronaphthalen-1-yl]amino}-pyrimidin-4-yl)oxy]-2-hydroxycyclopentyl}methyl sulfamate] | > 500 | < 10000 |
| COc1ccc2c(c1)[C@@H](Nc1cc(O[C@@H]3C[C@@H](COS(N)(=O)=O)[C@@H](O)C3)ncn1)[C@@H](OC)CC2 [Compound I-149, {(1S,2S,4R)-4-[(6-{[(1R,2S)-2,7-dimethoxy-1,2,3,4-tetrahydronaphthalen-1-yl]amino}-pyrimidin-4-yl)oxy]-2-hydroxycyclopentyl}methyl sulfamate] | > 500 | < 10000 |
| CO[C@H]1CC(C)(C)c2ccccc2[C@H]1Nc1cc(O[C@@H]2C[C@@H](COS(N)(=O)=O)[C@@H](O)C2)ncn1 [Compound I-150, {(1S,2S,4R)-2-hydroxy-4-[(6-{[(1R,2S)-2-methoxy-4,4-dimethyl-1,2,3,4-tetrahydronaphthalen-1-yl]amino}pyrimidin-4-yl)oxy]cyclopentyl}methyl sulfamate] | ≤ 500 |  |
| NS(=O)(=O)OC[C@H]1CC[C@H](Oc2ncnc3[nH]c(-c4cccc5ccccc45)nc23)C1 [Compound I-152, ((1S,3S)-3-{[8-(1-naphthyl)-9H-purin-6-yl]oxy}cyclopentyl)methyl sulfamate] | > 500 | < 10000 |

Further lines, results first:

| IC50 (bound given in nM) [nM] | IC50 (bound given in μM) [nM] | Compound |
| --- | --- | --- |
| ≤ 500 |  | CO[C@H]1CCc2ccccc2[C@H]1Nc1cc(O[C@@H]2C[C@@H](COS(N)(=O)=O)[C@@H](O)C2)ncn1 [Compound I-142, {(1S,2S,4R)-2-hydroxy-4-[(6-{[(1R,2S)-2-methoxy-1,2,3,4-tetrahydronaphthalen-1-yl]amino}pyrimidin-4-yl)oxy]cyclopentyl}methyl sulfamate] |
| ≤ 500 |  | CO[C@@H]1CCc2ccccc2[C@@H]1Nc1cc(O[C@@H]2C[C@@H](COS(N)(=O)=O)[C@@H](O)C2)ncn1 [Compound I-143, {(1S,2S,4R)-2-hydroxy-4-[(6-{[(1S,2R)-2-methoxy-1,2,3,4-tetrahydronaphthalen-1-yl]amino}pyrimidin-4-yl)oxy]cyclopentyl}methyl sulfamate] |
| ≤ 500 |  | NS(=O)(=O)OC[C@@H]1C[C@@H](N2CCc3c(N[C@H]4CCc5ccccc54)ncnc32)C[C@@H]1O [Compound I-146, ((1S,2S,4R)-4-{4-[(1S)-2,3-dihydro-1H-inden-1-ylamino]-5,6-dihydro-7H-pyrrolo[2,3-d]pyrimidin-7-yl}-2-hydroxycyclopentyl)methyl sulfamate] |
| ≤ 500 |  | NS(=O)(=O)OC[C@@H]1C[C@@H](Nc2ncnc(N[C@@H]3c4ccccc4CC3(F)F)n2)C[C@@H]1O [Compound I-147, {(1S,2S,4R)-4-[(4-{[(1R)-2,2-difluoro-2,3-dihydro-1H-inden-1-yl]amino}-1,3,5-triazin-2-yl)amino]-2-hydroxycyclopentyl}methyl sulfamate] |
| ≤ 500 |  | CO[C@@H]1CC(C)(C)c2ccccc2[C@@H]1Nc1cc(O[C@@H]2C[C@@H](COS(N)(=O)=O)[C@@H](O)C2)ncn1 [Compound I-151, {(1S,2S,4R)-2-hydroxy-4-[(6-{[(1S,2R)-2-methoxy-4,4-dimethyl-1,2,3,4-tetrahydronaphthalen-1-yl]amino}pyrimidin-4-yl)oxy]cyclopentyl}methyl sulfamate] |
| ≤ 500 |  | NS(=O)(=O)OC[C@@H]1C[C@@H](Nc2ncnc(N[C@H]3CCc4ccccc43)n2)C[C@@H]1O [Compound I-153, [(1S,2S,4R)-4-({4-[(1S)-2,3-dihydro-1H-inden-1-ylamino}-1,3,5-triazin-2-yl}amino)-2-hydroxycyclopentyl]methyl sulfamate] |
